Experimental data taken from patent US20100113613A1, “CYCLOHEXANE POLYALCOHOL FORMULATION FOR TREATMENT OF DISORDERS OF PROTEIN AGGREGATION” (WARATAH PHARMACEUTICALS, priority 2006, published 2010).
Where “and” joins values, the source holds several entries; their conditions need not be identical. Equal entries are not always repeated.

Assays:
[1] = in vivo; conditions: rat, po, 150 mg/kg
Description: (§1) Three studies were performed to investigate the pharmacokinetics of oral administration of a scyllo-cyclohexanehexyl (Table 1):
Plasma pharmacokinetics (PK) of a scyllo-cyclohexanehexyl in rats was assessed after single oral doses of 15, 50 and 150 mg/kg. After single oral doses in rats, maximum plasma concentration (Cmax) and exposure (AUC0-t) values increased proportionally with dose level of the scyllo-cyclohexanehexyl. Other parameters were unchanged with dose level. The scyllo-cyclohexanehexyl was absorbed rapidly, with mean tmax observed between 1.0 and 2.2 hours post-dose. […] Estimates of mean residence time (MRT) were consistent. Volumes of distribution (Vdss) were large, indicating wide distribution of scyllo-cyclohexanehexyl in rats.

[2] = in vivo; conditions: dog, po
Description: as §1
Two studies have investigated the single dose PK of oral administration of a scyllo-cyclohexanehexyl in dogs. The 14 day study investigated 18 animals. On Day 1 of this study Cmax and AUC values increased proportionally with dose level of a scyllo-cyclohexanehexyl. […] The extensive brain penetrance of the scyllo-cyclohexanhexyl (see below) may be relevant in this regard.

[3] = Single oral and intravenous dose pharmacokinetics, dose range-finding study in beagle dogs; format: in vivo, beagle dog; conditions: dogs, comparison of PK profiles following oral and i.v. administration
Description: PK of single oral doses of the scyllo-cyclohexanhexyl was also investigated in a preliminary fashion in a dose range-finding study in 5 beagle dogs. […] The Cmax and AUC values increased proportionally with dose, consistent with observations in the larger study. Estimates of t½ ranged from 2 to 5 hours. Neither dose nor route of administration had any clear effect on t½, MRT, Cl/F or Vdss.

[4] = in vivo; conditions: rat
Description: Plasma PK of a scyllo-cyclohexanehexyl compound in rats was assessed after 28 days oral dosing of 15, 50 and 150 mg/kg, administered twice daily. […] Indeed, at this dose level, the Vdss, clearance and elimination rates appeared to be reduced with repeated dosing. […] As for single doses, the scyllo-cyclohexanehexyl was absorbed rapidly, with mean tmax observed between 1.2 and 1.3 hours post-dose. […] Estimates of MRT were consistent.

[5] = in vivo; conditions: dog, po, 150 mg/kg
Description: Plasma PK of a scyllo-cyclohexanhexyl in dogs was assessed after 14 days oral dosing of 15, 50 and 150 mg/kg, administered twice daily. As on Day 1 of this study Cmax and AUC values increased proportionally with dose level of scyllo-cyclohexanehexyl. However, dose-normalised exposures appeared to decrease with dose. This contrasts with positive trend observed after acute exposure. […] As for single doses, the scyllo-cyclohexanehexyl was absorbed rapidly, with tmax observed between 1.1 and 1.8 hours post-dose. […] Estimates of MRT were consistent. The Vdss and Cl/F values were similar for all dose levels.

[6] = Brain penetrance: plasma and CSF pharmacokinetics after single oral doses in dogs; format: in vivo, dog
Text: CSF bathes the central nervous system and sits on the inside of the blood brain barrier. Although a centrally-acting drug will still need to penetrate brain tissue to exert an effect, quantification of drug in CSF may provide a gross estimate of brain-penetrance.

[7] = CSF and plasma levels at end of 14 day repeat dose study in dogs; format: in vivo, dog; conditions: 30 mg/kg/day for 14 days
Description: CSF was also collected from dogs at the end of the 14 day repeat study upon necropsy (approximately 24 hours after the final dose was administered). Levels of the scyllo-cyclohexanehexyl in CSF increased with dose and followed the profile observed in plasma.

[8] = single oral doses 20, 80, 240 mg/kg

## scyllo-inositol [AZD-103]
[1]
  half life (t1/2): 2.1 to 2.7 h
  mean tmax: 1.0 to 2.2 h
[2]
  Tmax: 1.2 to 2.2 h
  t½: 1.7 to 2.2 h
[3]
  estimated bioavailability: > 90%
[4]
  mean plasma concentration 12 hours after the last administration: ~6000 ng/mL
[4]; po, 150 mg/kg
  AUC(0-t): 573 µg·h/mL
  mean tmax: 1.2 to 1.3 h
  t½: 3.1 to 4.4 h
[5]
  AUC(0-t): 523 µg·h/mL
  Tmax: 1.1 to 1.8 h
  t½: 2.9 to 4.7 h
[6]
  Mean Cmax and AUC0-Inf in CSF as % of that observed in plasma: 60%
[6]; [8]
  plasma tmax (same animals): 2.3 to 2.8 h
  tmax in CSF: 2.8 to 4.0 h
[6]; single oral doses 20, 80, 240 mg/kg, same animals
  Mean Cmax in CSF as % of plasma Cmax: 27-66%
[6]; single oral doses, same animals, listed as scyllo-cyclohexanehexyl
  AUC0-Inf in CSF as % of that in plasma: 62% and 65%
[7]
  levels in both plasma and CSF (12 and 24 hours after the last administration): ~4000 ng/mL
